# Data as given in article PMC9440176, “Novel benzylidene benzofuranone analogues as potential anticancer agents: design, synthesis and in vitro evaluation based on CDK2 inhibition assays” (3 Biotech, 2022).
# What was measured:
# [1] = system: CDK2 gene expression in HCT 116 cell lines; assay: Semi-quantitative RT-PCR gene expression of CDK2; assay type: cell-based, Human; settings: for Relative gene expression of CDK2: control 1.00
# Method: HCT-116 cells were trypsinized and added to 1 ml TRIzol and vortexed. Samples were then allowed to stand for 5 min at room temperature. 0.2 ml of chloroform per 1 ml of TRIzol was added. The tube was later stoppered and shaken vigorously for 15 s and was allowed to stand at room temperature for 5 min. The resulting mixture was then centrifuged at 10,000×rpm for 15 min at […]. The upper aqueous phase was transferred to another clean tube followed by the addition of 0.5 ml of isopropanol per 1 ml of TRIzol. The contents were mixed gently by inverting the sample 5 times and incubated at room temperature for 5 min. Further, the tubes were centrifuged at 10,000×rpm for the next 10 min at […]. Later, the supernatant was discarded and the RNA pellet was washed by adding 1 ml of 70% ethanol. Further, the contents were mixed gently by inverting the sample for few times. It was again centrifuged for 5 min at 14,000×rpm at […]. In the later step, the supernatant was discarded by inverting the tube on a clean tissue paper. Later, the pellet was dried by incubating in a […] for 5 min at 55 °C. The pellet was then resuspended in 25 µL of DEPC (Diethyl pyro carbonate) treated water.
# A semi-quantitative reverse transcriptase polymerase chain reaction (RT-PCR) was carried out using Techno Prime system to determine the levels of β-actin and CDK-2 and CyclinA mRNA expression. The cDNA was synthesized from 2 µg of RNA using the Verso cDNA synthesis kit (Thermo Fischer Scientific) with oligo dT (deoxy thymine) primer according to the manufacturer’s instructions. The reaction volume was set to 20 μL and the cDNA synthesis was performed at 42 °C for 60 min followed by RT inactivation at 85 °C for 5 min (Murakami [1996]).
# The PCR mixture (final volume of 20 µL) contains 1 µL of cDNA, 10 µL of Red Taq Master Mix 2× (Ampliqon) and 1 µM of each complementary primer specific for CDK2 and CyclinA and β-actin (internal control) sequence. The samples are denatured at 95 °C for 5 min and amplified using 35 cycles of 95 °C for 30 s then again at 55 °C for 30 s and 72 °C for 1 min for β-actin; the […] annealing was finally set to 56 °C followed by the final elongation at 72 °C for 10 min. […] Ten microliters of the final amplification product are run on a 2% ethidium-stained agarose gel and photographed. Quantification of the results could be accomplished by measuring the optical density of the bands, using the computerized imaging program Image J. The values were normalized to β-actin intensity levels (Bookout and Mangelsdorf [2003]).
# [2] = ABTS.+ radical scavenging assay
# Method: The assay was performed in a 96-well plate by serial dilution method. A 2 mM ABTS^.+ working solution was prepared in a phosphate buffer (Zheleva-Dimitrova et al [2010]).To this, 200 μL of aqueous potassium per sulfate (70 mM) solution was added and the solution was incubated for 24 h in the dark at room temperature to develop a blue-green color. To 30 μL of ABTS^.+ working solution, 50 μL of different concentrations (3.9–1000 μM) of the test sample solution and 170 μL of phosphate buffer (pH-7.4) were added in a well. The plate was then incubated in the dark at room temperature for 10 min. Then absorbance was measured at 690 nm using Elisa reader. Quercetin and ascorbic acid were used as standards. The percentage scavenging of ABTS^.+ was calculated using the formula, (Control Absorbance–Test Absorbance)*100/(Control Absorbance) and the anti-oxidant activity was expressed in terms of IC50 value.
# [3] = system: MCF-7; assay: MTT cytotoxicity assay on MCF-7; assay type: cell-based; settings: 24 h, read-out: Inhibition of cell proliferation, IC50, MCF-7
# Method: (§1) The monolayer cell culture was trypsinized and the cell count was adjusted to 5.0 × 10^5 cells/ml using respective media containing 10% FBS. To each well of the 96-well microtiter plate, 100 µL of the diluted cell suspension (50,000cells/well) was added. After 24 h, when a partial monolayer was formed, the supernatant was flicked off, the monolayer was then washed once again with the medium and 100 µL of different test concentrations of test drugs were added on to the partial monolayer in microtiter plates. The plates were then incubated at 37 °C for 24 h in 5% CO2 atmosphere. After incubation, the test solutions in the wells were discarded and 100 µL of MTT (5 mg/10 ml of MTT in PBS) was added to each well. The plates were then incubated for 4 h at 37 °C in 5% CO2 atmosphere. The supernatant was then removed and 100 µL of DMSO was added and the plates were gently shaken to solubilize the formed formazan. The absorbance was measured using a microtiter plate reader at a wavelength of 590 nm. The percentage growth inhibition was thus calculated using the following formula and the concentration of the test drug required to inhibit the cell growth by 50% (IC50) values is generated from the dose–response curves for each one of the cell lines (Meerloo et al. [2011]).
# (§2) The test compounds were screened for their in vitro cytotoxicity by MTT assay against two cancer cell lines, namely MCF-7, HCT-116 and normal epithelial kidney cells (Vero). Doxorubicin was used as a reference standard.
# [4] = system: normal epithelial kidney cells (Vero); assay: MTT cytotoxicity assay on Vero; assay type: cell-based; settings: 24 h, read-out: Inhibition of cell proliferation, IC50, Vero
# Method: as §1, §2
# [5] = system: HCT 116 cell lines; assay: Cell cycle analysis (PI, FACS); assay type: cell-based, Human; settings: 24 h
# Method: The cell cycle analysis was followed where 1 × 10^6 cells were seeded and cultured for 24 h in a 6-well plate containing 2 ml of the media. Cells were then treated with desired concentrations of the given samples that were prepared in media and further incubated for another 24 h. Cells were then harvested and centrifuged at 2000 rpm for 5 min at room temperature and the supernatant was discarded carefully retaining the cell pellet. Cell pellet was then washed by resuspending in 2 ml of 1XPBS. The washing was repeated another time under the same conditions. Further, the supernatant was discarded retaining the pellet. Cells were then fixed by resuspending in 300 µL of Sheath fluid followed by the addition of 1 ml of chilled 70% ethanol drop by drop gently with continuous shaking and one more mL of the same at once. The cells were then stored at 4 °C overnight. Post fixing, the cells were centrifuged at 2000 rpm for 5 min washed twice with 2 ml of cold 1XPBS and suspended in 450 µL of sheath fluid containing 0.05 mg/ml PI (Propidium iodide), 0.05 mg/ml RNase A and incubated for 15 min in the dark (Kasibhatla et al. [2006]).The percentage of cells in various stages of cell cycle both in the treated as well as un-treated populations was determined using FACS Caliber (BD Biosciences, San Jose, CA).
smiles,measurement,setting,value
COc1ccc(/C=C2\Oc3c(c(OC)cc(OC)c3C3=CCN(C(C)C)CC3)C2=O)cc1OC [NISOA4],"Band intensity of PCR amplicon of genes, CDK2",[1]; 12.5 μM,"16,091.61"
same,Normalized (CDK2 to β-actin),[1]; 12.5 μM,0.63
same,expression of CDK2 (in words),"[1]; 12.5 μM and 25 μM, HCT 116",clear dose-dependent decrease
same,Relative gene expression of CDK2,[1]; 12.5 μM,0.59
same,"Band intensity of PCR amplicon of genes, CDK2",[1]; 25 μM,"13,190.418"
same,Normalized (CDK2 to β-actin),[1]; 25 μM,0.52
same,Relative gene expression of CDK2,[1]; 25 μM,0.49
same,IC50,[2],127 ± 12.5 µM
same,IC50,[3],35.6 µM
same,IC50,[4],> 200 µM
same,percentage cell population GO/G1 phase,[5]; high concentration (25),57.97%
same,percentage cell population G2/M phase,[5]; low concentration (12.5),17.30%
same,percentage cell population GO/G1 phase,[5]; low concentration (12.5),70.84%
same,percentage cell population S phase,[5]; low concentration (12.5),10.61%
